Here are results for seven compounds from PubChem BioAssay (NCI).

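Briefly, cells in 96-well plates were exposed to five compound concentrations for 48 h, and endpoints were estimated by linear interpolation. GI50 marks 50% less growth. TGI denotes the concentration required for complete inhibition of growth.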 A value given as a limit tells only on which side of the number the result lay.

Holding throughout (test): NCI tumour cell line growth inhibition, 48 h
Assay [1] concerns LOX IMVI melanoma.
For assay [2], the system named is A498 renal.
Assay [3] deals with BT-549 breast.
Assay [4] has as its system HOP-92 NSCLC.
The test system of assay [5] is MDA-MB-435.
Assay [6] relates to NCI-H460 lung.
In assay [7] the test system is U251 CNS.
Assay [8] deals with A549 NSCLC.
Assay [9] deals with SNB-19 CNS.
The subject of assay [10] is T-47D breast.

As to `C[C@@H]1Cc2cc(O)ccc2[C@H]2CC[C@]3(C)/C(=C/COCCN(C)C)CC[C@H]3[C@H]12` (tested in a mixture with another compound), the GI50 in assay [1] is 187 nM; in assay [2], 0.534 µM; in assay [3] it was 294 nM; in assay [4], 216 nM; in [5] it was 268 nM; in [6], 70.4 nM. Also, the GI50 is 216 nM in assay [7], 55.7 nM in [8], 364 nM in assay [9] and 122 nM in assay [10]. For the same compound, the TGI came to 0.389 µM in [1]; 1.59 µM in assay [2]; 0.8 µM in assay [3]; 0.872 µM in assay [4]; 0.875 µM in [5]; 0.208 µM in assay [6]. The TGI was found to be 0.528 µM in assay [7], 0.193 µM in [8], 1.34 µM in assay [9] and 0.679 µM in assay [10].
Turning to `Oc1cccc2c1NCCC2`, the GI50 was 119 nM in assay [1]; 2.57 µM in [2]; 541 nM in [3]; 23.1 nM in [4]; 122 nM in [5]; 103 nM in [6]. Further, the GI50 is 102 nM in [7], 111 nM in [8], 164 nM in assay [9] and 581 nM in assay [10]. For the same compound, the TGI is more than 36.7 µM in assay [1]; 9.07 µM in assay [2]; more than 100 µM in assay [3]; 0.066 µM in assay [4]; more than 100 µM in assay [5]; 4.66 µM in [6]. The TGI was more than 100 µM in [7], more than 32.2 µM in assay [8], more than 100 µM in assay [9] and 96.2 µM in assay [10].
In the case of `C[n+]1c2ccccc2nc2c(N)cc(N)cc21`, the GI50 in [1] was 18000 nM; in assay [2], 69.2 µM; in assay [3] it was 2620 nM; in assay [4], 35400 nM; in assay [5], 15900 nM; in [6], 16800 nM. In addition, the GI50 in assay [7] was 2500 nM; in [8], 14100 nM; in [9] it was 2900 nM; in assay [10], 3950 nM. For the same compound, the TGI was 94 µM in [1]; more than 100 µM in assay [2]; 12.5 µM in assay [3]; more than 100 µM in assay [4]; 41.5 µM in assay [5]; 59 µM in [6]. Besides, the TGI in assay [7] was more than 100 µM; in assay [8] it was more than 100 µM; in assay [9], 14.4 µM; in assay [10], 40.9 µM.
As to `COc1cc(-c2nn(-c3cccc(NC(=O)CCN4CCN(Cc5ccccc5)CC4)c3)cc2-c2ccncc2)ccc1Cl`, the GI50 in assay [1] was 661 nM; in [2] it was 1.41 µM; in assay [3], 2270 nM; in assay [4], 790 nM; in [5], 237 nM; in assay [6], 380 nM. For the same compound, the GI50 in [7] is 839 nM; in assay [8] it was 1720 nM; in assay [9], 4420 nM; in assay [10], 2760 nM. For the same compound, the TGI in assay [1] amounted to 1.98 µM; in assay [2] it was 6.71 µM; in [3] it was 8.59 µM; in assay [4], 4.44 µM; in [5] it was 0.737 µM; in assay [6] it was 1.46 µM. Moreover, the TGI in assay [7] stood at 2.76 µM; in [8], 11.6 µM; in [9], 41.2 µM; in assay [10], 27.6 µM.
Consider `Oc1cc(-n2cccn2)c(O)cc1-n1cccn1`, for which the TGI in assay [1] was 42.4 µM; in assay [2], more than 92.2 µM; in assay [3], 35.7 µM; in assay [4], 39.8 µM; in [5] it was 31.8 µM; in [6], more than 100 µM. In addition, the TGI in assay [7] was more than 78.2 µM; in assay [8] it was more than 100 µM; in assay [9] it was more than 82.3 µM; in assay [10], 56.3 µM.
As for `COc1ccc(/C=C(\C)[N+](=O)[O-])cc1OC`, the GI50 was 1360 nM in assay [1]; 4.51 µM in assay [2]; 1860 nM in assay [3]; 2010 nM in assay [4]; 1860 nM in [5]; 2540 nM in [6]. In addition, the GI50 in [7] was 4390 nM; in assay [8] it was 5560 nM; in assay [9], 11300 nM; in assay [10] it was 1880 nM. Besides, the TGI worked out at 2.97 µM in assay [1]; 18.5 µM in [2]; 3.36 µM in [3]; 3.71 µM in [4]; 3.94 µM in assay [5]; 6.56 µM in assay [6]. Moreover, the TGI is 15.9 µM in assay [7], 19.3 µM in assay [8], 23.6 µM in [9] and 5.1 µM in [10].
In the case of `CN1CCN(CCCCCN=c2cc3c(=O)n(CCCCCN4CCN(C)CC4)c(=O)c4c(NCCCCCN5CCN(C)CC5)cc5c(O)n(CCCCCN6CCN(C)CC6)c(=O)c2c5c4-3)CC1`, the GI50 in assay [1] was 2940 nM; in assay [2], 19.2 µM; in assay [3], 4340 nM; in [4], 1840 nM; in assay [5], 2700 nM; in [6] it was 3060 nM. The GI50 in assay [7] was 2210 nM; in assay [8], 2920 nM; in assay [9] it was 2140 nM; in [10] it was 3590 nM. For the same compound, the TGI came to 12.8 µM in assay [1]; 60 µM in assay [2]; 15.7 µM in [3]; 7.39 µM in assay [4]; 8.73 µM in assay [5]; 10.2 µM in assay [6]. Further, the TGI in [7] came out at 6.68 µM; in assay [8], 8.64 µM; in assay [9], 7.16 µM; in [10], 25.4 µM.
